# Laboratory results taken from patent US10189795B2, “Aryl amine substituted quinoxaline used as anticancer drugs” (priority 2014, dated 2019).
# How the values were obtained:
# PP2A = PP2A phosphatase activity (malachite green-phosphate assay in cell lysate); format: cell-based
# Protocol: The protein phosphatase activity in each cell lysate was determined by measuring the generation of free phosphate from threonine phosphopeptide using the malachite green-phosphate complex assay as described by the manufacturer (Upstate Biotechnology, Lake Placid, N.Y., USA). In brief, HCC cell lysates were first prepared in a low-detergent lysis buffer. […] After incubation for 10 min at 30° C., the malachite dye was added and free phosphate was measured by optical density at 650 nm. In order to avoid variation resulting from differences in the amount of immunoprecipitation protein between samples, the phosphatase activities were normalized to the amounts of PP2A immunoprecipitated, which were detected and quantified by immunoblot analysis for each treatment group.
# H358 = test: cell viability of H358 cells, 1 and 10 uM; format: cell-based; settings: Homo sapiens, NCI-H358
# Protocol: [Worded in the source for another cell line; this cell line is reported under the same test.] (§1) Sorafenib (Nexavar), erlotinib (Tarceva) and Paclitaxel were kindly provided by Bayer Pharmaceuticals (Pittsburgh, Pa., USA) and Roche Pharmaceuticals (Basel, Switzerland) respectively. Okadaic acid (OA) was purchased from Cayman Chemical (Ann Arbor, Mich., USA) and z-VAD-fmk was obtained from Sigma (St. Louis, Mo., USA). For in vitro studies, drugs at various concentrations were dissolved in dimethyl sulfoxide (DMSO), and added to cells in Dulbecco's modified Eagle's medium (DMEM) or Roswell Park Memorial Institute (RPMI) containing 5% fetal bovine serum (FBS).
# (§2) The Sk-Hep1, PLC/PRF/5 (PLC) and Hep3B cell lines were obtained from American Type Culture Collection (ATCC; Manassas, Va., USA). The Huh-7 HCC cell line was obtained from the Health Science Research Resources Bank (HSRRB; Osaka, Japan; JCRB0403). Cells were maintained in DMEM supplemented with 10% FBS in a 37° C. humidified incubator in an atmosphere of 5% CO^2 in air.
# A549 = test: cell viability of A549 cells, 1 and 10 uM; format: cell-based; settings: Homo sapiens
# Protocol: [Worded in the source for another cell line; this cell line is reported under the same test.] as §1, §2
# NCI-1703 = test: cell viability of NCI-1703 cells, 1 and 10 uM of each erlotinib derivative, and IC50; format: cell-based; settings: Homo sapiens; for IC50: cell viability
# Protocol: [Worded in the source for another cell line; this cell line is reported under the same test.] as §1, §2
# NCI-H226 = test: cell viability of NCI-H226 cells, 1 and 10 uM; format: cell-based; settings: Homo sapiens
# Protocol: [Worded in the source for another cell line; this cell line is reported under the same test.] as §1, §2
# H520 = test: cell viability of H520 cells, 1 and 10 uM; format: cell-based; settings: Homo sapiens, NCI-H520
# Protocol: [Worded in the source for another cell line; this cell line is reported under the same test.] as §1, §2
# H2170 = test: cell viability of H2170 cells, 1 and 10 uM; format: cell-based; settings: Homo sapiens, NCI-H2170
# Protocol: [Worded in the source for another cell line; this cell line is reported under the same test.] as §1, §2
# SW900 = test: cell viability of SW900 cells, 1 and 10 uM; format: cell-based; settings: Homo sapiens
# Protocol: [Worded in the source for another cell line; this cell line is reported under the same test.] as §1, §2
# SET-PP2Ac binding = target: T1, SET-PP2Ac binding (Homo sapiens, UniProt Q01105); test: disruption of SET-PP2Ac binding (surface plasmon resonance, co-IP)
# T1 construct: His; purchased Genway (SET-His); Abnova (PP2Ac-GST) GWB-ATG319; H00005515
# Protocol: Binding affinities of full-length SET and truncated SET to PP2Ac and the effect of the erlotinib derivatives of the present invention on disrupting SET and PP2Ac were analyzed. PP2Ac-GST recombinant protein was bound in the CMS chip pre-coated with GST-capture antibodies. Sensorgrams were generated by injecting several concentrations of the erlotinib derivatives of the present invention mixed with fixed-concentration of SET recombinant protein, or the mixture of different concentration of truncated SET proteins in a fixed-dose EMQA. PP2Ac-GST recombinant protein used for this experiment was purchased from Abnova (H00005515) and SET-His recombinant protein was obtained from Genway (GWB-ATG319).
# EMQA reactivates PP2A by disrupting the binding of SET-PP2Ac. To validate the role of SET, the present invention generated Hep3B cells with ectopic expression of myc-tagged SET by transient transfection. […] With a fixed amount of PP2Ac coated on the CM chip, the present invention tested the effects of a fixed-dose of EMQA on interfering different proportions of full-length and truncated forms of SET proteins in SPR system. […] To validate the findings of this ex vivo system, the present invention generated cells with ectopic overexpression of these two truncated forms of Flag-tagged SET proteins by transient transfections.
# T1 sequence (Q01105 1-277 isoform Q01105-2): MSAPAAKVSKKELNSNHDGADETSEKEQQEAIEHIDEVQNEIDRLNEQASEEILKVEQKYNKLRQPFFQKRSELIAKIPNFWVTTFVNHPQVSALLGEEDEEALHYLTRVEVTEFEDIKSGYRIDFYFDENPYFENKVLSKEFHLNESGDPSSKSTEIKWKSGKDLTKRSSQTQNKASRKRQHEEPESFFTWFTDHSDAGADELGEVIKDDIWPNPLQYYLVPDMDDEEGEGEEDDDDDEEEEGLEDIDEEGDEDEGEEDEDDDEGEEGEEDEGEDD
SMILES,minimal concentration for PP2A activation (PP2A) [nM],viability at 1 µM (H358) [%],viability at 10 µM (H358) [%],viability at 1 µM (A549) [%],viability at 10 µM (A549) [%],viability at 1 µM (NCI-1703) [%],viability at 10 µM (NCI-1703) [%],viability at 1 µM (NCI-H226) [%],viability at 10 µM (NCI-H226) [%],viability at 1 µM (H520) [%],viability at 10 µM (H520) [%],viability at 1 µM (H2170) [%],viability at 10 µM (H2170) [%],viability at 1 µM (SW900) [%],viability at 10 µM (SW900) [%],minimal concentration to disrupt SET-PP2Ac binding (SET-PP2Ac binding) [nM],IC50 (NCI-1703) [nM]
"COc1ccc(Nc2nc3ccc([N+](=O)[O-])cc3nc2Nc2cccc(O)c2)cc1 [TD612, 3-(2-(4-methoxyphenylamino)-6-nitroquinoxalin-3-ylamino)phenol]",<100,97.3 ± 13.4,12.8 ± 0.4,90.6 ± 18.2,10.3 ± 1.2,82.7 ± 2.4,13.4 ± 0.7,69.4 ± 6.8,38 ± 1.4,107 ± 2.62,12.9 ± 1.2,107 ± 4.84,22.5 ± 11.8,105 ± 3.4,64.7 ± 4,,
"FS(F)(F)(F)(F)c1ccc(Nc2nc3ccccc3nc2Nc2ccc(S(F)(F)(F)(F)F)cc2)cc1 [TD68, N^2,N^3-bis(4-(Pentafluorothio)phenyl)quinoxaline-2,3-diamine]",<50,22.4 ± 1.8,16.7 ± 0.8,57.3 ± 19.1,32.9 ± 4,48.6 ± 2,33.3 ± 7.1,40.2 ± 0.3,14.8 ± 0.3,10.1 ± 0.85,0.47 ± 0.11,69.39 ± 0.67,0.17 ± 0.16,3.38 ± 4.64,0.57 ± 0.22,50,
"FS(F)(F)(F)(F)c1ccc(Nc2nc3ccccc3nc2Cl)cc1 [TD81, 3-chloro-N-(4-(Pentafluorothio)phenyl)quinoxalin-2-amine]",>200,116 ± 5.9,75.5 ± 3.9,95.6 ± 15.9,69.4 ± 3.4,82.7 ± 5,85.8 ± 0.1,100 ± 4.1,92 ± 3.8,103.4 ± 0.14,72.4 ± 11.3,100 ± 6.2,82.7 ± 2.44,86.9 ± 7.36,60.2 ± 11.2,>200,
"O=[N+]([O-])c1ccc2nc(Nc3cccc(Br)c3)c(Nc3cccc(Br)c3)nc2c1 [TD618, N^2,N^3-bis(3-bromophenyl)-6-nitroquinoxaline-2,3-diamine]",>200,36.6 ± 1.6,20.4 ± 3.5,53.2 ± 6.3,26.9 ± 7,48.3 ± 4.8,31.9 ± 5,49.6 ± 9.4,16.7 ± 1.1,,,,,,,>200,
"FC(F)(F)Oc1ccc(Nc2nc3ccccc3nc2Nc2ccc(OC(F)(F)F)cc2)cc1 [TD65, N^2,N^3-bis(4-(trifluoromethoxy)phenyl)quinoxaline-2,3-diamine]",50 to 100,27.1 ± 1.2,18.3 ± 3,66.4 ± 6.9,27.7 ± 2,53.2 ± 2.3,26.3 ± 1,46.2 ± 2.5,14.1 ± 1.3,18.5 ± 1.23,0.47 ± 0.06,77.9 ± 3.48,0.26 ± 0.1,0.73 ± 1.32,,<100,
"COc1cccc(Nc2nc3ccc([N+](=O)[O-])cc3nc2Nc2cccc(OC)c2)c1 [TD608, N^2,N^3-bis(3-methoxyphenyl)-6-nitroquinoxaline-2,3-diamine]",>200,110 ± 44,31.7 ± 33.3,71.5 ± 35,10.3 ± 3.5,52.8 ± 4.5,12.7 ± 0.9,104 ± 2.5,40.6 ± 2.4,97 ± 19.8,1.77 ± 1.7,113 ± 8.63,4.71 ± 0.24,114 ± 2.6,39.8 ± 51.2,>200,
"FC(F)(F)Oc1ccc(Nc2nc3ccccc3nc2Cl)cc1 [TD80, 3-chloro-N-(4-(trifluoromethoxy)phenyl)quinoxalin-2-amine]",>200,119 ± 3.7,89.4 ± 11.9,110 ± 6,83.4 ± 16.4,106 ± 5.2,52.3 ± 2.4,103 ± 10.7,87.8 ± 9.3,104 ± 1.3,92.2 ± 4.42,91.6 ± 5.42,87.56 ± 0.78,99.8 ± 11.8,88 ± 13.4,>200,
"FC(F)(F)c1cc(Nc2nc3ccccc3nc2Nc2ccc(Cl)c(C(F)(F)F)c2)ccc1Cl [TD63, N^2,N^3-bis(4-chloro-3-(trifluoromethyl)phenyl)quinoxaline-2,3-diamine]",100 to 200,66.8 ± 8.5,16.2 ± 1.3,79.2 ± 7.8,21.9 ± 2.2,54.5 ± 5.5,28.8 ± 7.9,99.9 ± 4.3,19.6 ± 0.4,28.5 ± 0.58,0.45 ± 0.14,78.5 ± 1.28,9.13 ± 0.63,54.8 ± 3.35,3.28 ± 4.63,<100,
"C#Cc1cccc(Nc2nc3cc([N+](=O)[O-])ccc3nc2Nc2ccc(OC)cc2)c1 [TD605, N^3-(3-ethynylphenyl)-N^2-(4-methoxyphenyl)-6-nitroquinoxaline-2,3-diamine]",100 to 200,101 ± 13.6,113 ± 12,83.7 ± 7,113 ± 18.3,20.8 ± 0.4,13.8 ± 0.2,53.1 ± 1.9,5.5 ± 0.2,89.1 ± 6.09,0.78 ± 0.39,108 ± 3.88,5.53 ± 0.81,87.1 ± 27.2,2.21 ± 1.34,100 to 200,500
"Nc1ccc2nc(Nc3ccc(C(F)(F)F)cc3)c(Nc3ccc(C(F)(F)F)cc3)nc2c1 [TD607, N^2,N^3-bis(4-(trifluoromethyl)phenyl)quinoxaline-2,3,6-triamine]",>200,116 ± 15.5,12.1 ± 0.3,100 ± 5.9,9.5 ± 0.6,49.7 ± 2.7,13.4 ± 1.6,106 ± 2.6,36.7 ± 2.2,63.4 ± 53.7,,104 ± 14.2,1.34 ± 0.93,85.9 ± 10.4,0.61 ± 5,>200,1300
"Clc1cc(Cl)cc(Nc2nc3ccccc3nc2Cl)c1 [TD78, 3-chloro-N-(3,5-dichlorophenyl)quinoxalin-2-amine]",>200,98.7 ± 4.6,90.8 ± 7.4,77.6 ± 5.8,94.7 ± 11.3,70.6 ± 8.2,73.2 ± 14.1,118 ± 2.2,111 ± 12.9,108.5 ± 0.14,108 ± 2.23,111 ± 1.69,93.09 ± 0.66,102 ± 6.69,84.1 ± 1.12,100 to 200,
